Test results reported in ChEMBL document CHEMBL1154996, “Inhibitors of dipeptidyl peptidase 8 and dipeptidyl peptidase 9. Part 2: isoindoline containing inhibitors” (Bioorg Med Chem Lett, 2008).
Calls of active or inactive are those of the source. The rule behind the calls is not given here.

Experiments:
Dipeptidyl peptidase 4 = Dipeptidyl peptidase 4 (Homo sapiens, UniProt P27487); assay: Inhibition of DPP4
Dipeptidyl peptidase 2 = Dipeptidyl peptidase 2 (Homo sapiens, UniProt Q9UHL4); assay: Inhibition of DPP2
Dipeptidyl peptidase 8 = Dipeptidyl peptidase 8 (Homo sapiens, UniProt Q6V1X1); assay: Inhibition of DPP8
Sequence of Dipeptidyl peptidase 8 (Q6V1X1 whole entry): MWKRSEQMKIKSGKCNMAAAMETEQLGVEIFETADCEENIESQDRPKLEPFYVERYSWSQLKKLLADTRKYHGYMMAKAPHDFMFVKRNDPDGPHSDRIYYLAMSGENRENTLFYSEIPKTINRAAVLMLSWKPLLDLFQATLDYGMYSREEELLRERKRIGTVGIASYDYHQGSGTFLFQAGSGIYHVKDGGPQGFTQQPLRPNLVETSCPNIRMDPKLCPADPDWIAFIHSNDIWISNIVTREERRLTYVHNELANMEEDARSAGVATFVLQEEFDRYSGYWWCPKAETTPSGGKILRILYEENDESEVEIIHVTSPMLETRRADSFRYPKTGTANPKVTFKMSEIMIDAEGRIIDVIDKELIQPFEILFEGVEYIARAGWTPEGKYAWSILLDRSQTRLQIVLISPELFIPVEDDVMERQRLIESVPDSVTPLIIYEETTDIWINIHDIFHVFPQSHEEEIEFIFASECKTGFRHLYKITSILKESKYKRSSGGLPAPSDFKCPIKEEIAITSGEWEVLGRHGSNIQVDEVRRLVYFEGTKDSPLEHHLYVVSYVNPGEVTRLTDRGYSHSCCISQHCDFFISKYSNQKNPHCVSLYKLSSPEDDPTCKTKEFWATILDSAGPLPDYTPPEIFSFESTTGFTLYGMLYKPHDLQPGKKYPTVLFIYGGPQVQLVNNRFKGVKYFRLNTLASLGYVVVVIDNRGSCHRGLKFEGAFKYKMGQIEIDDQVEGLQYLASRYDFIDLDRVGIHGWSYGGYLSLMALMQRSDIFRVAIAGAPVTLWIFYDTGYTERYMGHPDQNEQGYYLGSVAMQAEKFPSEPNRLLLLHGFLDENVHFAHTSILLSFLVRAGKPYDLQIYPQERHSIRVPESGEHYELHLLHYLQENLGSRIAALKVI

Dipeptidyl peptidase 9 = Dipeptidyl peptidase 9 (Homo sapiens, UniProt Q86TI2); assay: Inhibition of DPP9
Sequence of Dipeptidyl peptidase 9 (Q86TI2 whole entry): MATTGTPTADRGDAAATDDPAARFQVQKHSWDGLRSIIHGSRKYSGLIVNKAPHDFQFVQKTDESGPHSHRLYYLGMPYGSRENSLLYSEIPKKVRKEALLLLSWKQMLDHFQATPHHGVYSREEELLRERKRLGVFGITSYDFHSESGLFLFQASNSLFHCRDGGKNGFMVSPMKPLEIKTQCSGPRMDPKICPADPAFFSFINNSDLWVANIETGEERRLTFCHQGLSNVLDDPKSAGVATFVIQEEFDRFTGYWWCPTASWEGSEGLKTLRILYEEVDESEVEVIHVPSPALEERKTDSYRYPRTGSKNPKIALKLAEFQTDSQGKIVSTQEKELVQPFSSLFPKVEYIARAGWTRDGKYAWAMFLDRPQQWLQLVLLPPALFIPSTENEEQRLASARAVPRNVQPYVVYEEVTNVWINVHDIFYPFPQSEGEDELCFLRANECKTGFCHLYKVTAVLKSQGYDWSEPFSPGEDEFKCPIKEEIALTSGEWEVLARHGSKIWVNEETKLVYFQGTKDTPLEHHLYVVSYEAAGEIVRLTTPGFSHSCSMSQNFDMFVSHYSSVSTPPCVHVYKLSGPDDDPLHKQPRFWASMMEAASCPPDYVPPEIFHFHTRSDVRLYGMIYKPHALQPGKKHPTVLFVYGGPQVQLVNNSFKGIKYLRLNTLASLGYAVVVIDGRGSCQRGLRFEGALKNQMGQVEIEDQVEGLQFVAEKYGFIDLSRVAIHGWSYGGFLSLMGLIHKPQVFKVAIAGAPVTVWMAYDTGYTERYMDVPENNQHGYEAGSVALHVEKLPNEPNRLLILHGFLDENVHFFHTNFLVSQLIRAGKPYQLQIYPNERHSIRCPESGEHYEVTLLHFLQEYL

IC50 (Dipeptidyl peptidase 4) [µM] | IC50 (Dipeptidyl peptidase 2) [µM] | IC50 (Dipeptidyl peptidase 8) [µM] | IC50 (Dipeptidyl peptidase 9) [µM] | Activity (Dipeptidyl peptidase 4) | SMILES
> 250 | – | – | – | – | O=C([C@@H]1C[C@@H](Nc2ccc3ccccc3c2)CN1)N1Cc2ccccc2C1
> 500 | – | – | – | – | N[C@H]1CN[C@H](C(=O)N2Cc3ccccc3C2)C1
> 1000 | – | – | – | – | O=C([C@@H]1C[C@@H](NCc2ccccc2)CN1)N1Cc2ccccc2C1
> 500 | 4.5 | – | > 25 | – | O=C([C@@H]1C[C@@H](N(Cc2ccccc2)Cc2ccccc2)CN1)N1Cc2ccccc2C1
4.97 | – | – | – | – | O=C([C@@H]1C[C@H](Nc2cccc3ccccc23)CN1)N1Cc2ccccc2C1
178 | – | – | – | – | N[C@@H](CCCCNc1ccc2ccccc2c1)C(=O)N1Cc2ccccc2C1
– | > 100 | – | – | – | O=C([C@@H]1C[C@H](N(c2ccc3ccccc3c2)c2ccc3ccccc3c2)CN1)N1Cc2ccccc2C1
> 100 | – | – | – | – | O=C([C@@H]1C[C@H](Nc2ccc3ccccc3c2)CN1)N1Cc2ccccc2C1
> 250 | – | – | – | – | O=C([C@@H]1C[C@H](NCc2ccccc2)CN1)N1Cc2ccccc2C1
– | – | – | – | inactive | O=C([C@@H]1C[C@H](N(c2cccc3ccccc23)c2cccc3ccccc23)CN1)N1Cc2ccccc2C1

The remaining lines, values behind:

SMILES | IC50 (Dipeptidyl peptidase 4) [µM] | IC50 (Dipeptidyl peptidase 2) [µM] | IC50 (Dipeptidyl peptidase 8) [µM] | IC50 (Dipeptidyl peptidase 9) [µM] | Activity (Dipeptidyl peptidase 4)
CC[C@H](C)[C@H](N)C(=O)N1Cc2ccc(C)cc2C1 | > 100 | – | – | – | –
N[C@@H](CCCCNCc1ccccc1)C(=O)N1Cc2ccccc2C1 | > 50 | – | – | – | –
CC[C@@H](C)[C@H](N)C(=O)N1Cc2ccc(C)cc2C1 | > 100 | – | – | – | –
N[C@@H](CCCCN(Cc1ccccc1)Cc1ccccc1)C(=O)N1Cc2ccccc2C1 | > 62.5 | – | – | – | –
CC[C@H](C)[C@H](N)C(=O)N1Cc2ccc(C(C)(C)C)cc2C1 | > 100 | > 100 | > 100 | > 100 | –
CC[C@H](C)[C@H](N)C(=O)N1Cc2cccc(C)c2C1 | > 100 | > 100 | > 100 | > 100 | –
NCCCC[C@H](N)C(=O)N1Cc2ccccc2C1 | 161 | – | – | – | –
CC[C@@H](C)[C@H](N)C(=O)N1Cc2cccc(F)c2C1 | > 100 | – | – | – | –
CC[C@H](C)[C@H](N)C(=O)N1Cc2ccc(I)cc2C1 | > 100 | 2.6 | > 25 | > 50 | –
CC[C@@H](C)[C@H](N)C(=O)N1Cc2ccc(C(F)(F)F)cc2C1 | > 100 | 12.6 | > 100 | > 100 | –
CC[C@H](C)[C@H](N)C(=O)N1Cc2ccc(N=[N+]=[N-])cc2C1 | > 100 | > 50 | > 100 | – | –
N[C@@H](CCCCN(c1ccc2ccccc2c1)c1ccc2ccccc2c1)C(=O)N1Cc2ccccc2C1 | > 31.2 | – | – | – | –
N[C@@H](CCCCNC(=O)OCc1ccccc1)C(=O)N1Cc2ccccc2C1 | 245 | 2.5 | – | – | –
CC[C@H](C)[C@H](N)C(=O)N1Cc2ccc(C(F)(F)F)cc2C1 | > 100 | 13 | > 100 | > 100 | –
CC[C@H](C)[C@H](N)C(=O)N1Cc2cccnc2C1 | > 100 | > 100 | – | – | –
CC[C@H](C)[C@H](N)C(=O)N1Cc2cccc(F)c2C1 | > 100 | – | – | – | –
CC[C@H](C)[C@H](N)C(=O)N1Cc2ccc([N+](=O)[O-])cc2C1 | > 50 | 66 | > 50 | > 25 | –
CC[C@H](C)[C@H](N)C(=O)N1Cc2ccc(Br)cc2C1 | > 100 | – | – | – | –
